Compound `Nc1ccccc1-c1c(-c2ccccc2)noc1-c1ccccc1` came in with a melting point of 185 °C.

For the compound `COc1c(F)cc(F)cc1C#N`, the melting point turned out to be 35 °C.

Regarding `Nc1ncnc2c1ncn2C1CC(O)C(COP(=O)(O)O)O1` (stereo not drawn), the melting point turned out to be 148 °C.

Compound `CCOC(=O)Nc1c([N+](=O)[O-])cc(C)cc1[N+](=O)[O-]` returned a melting point of 65 °C.

For `FC(F)(F)c1cc(Cl)c2c(Cl)cc(Cl)cc2n1`, the melting point lay in the range of 111 to 114 °C.

`CC12CCC3C(CCC4CC(O)CCC43C)C1CCC2=O` (stereo not drawn) gave a melting point of 185 °C.

On to `CCOC(=O)Nc1ccc2cc3ccc4c(c3nc2c1)COCN4C(=O)OCC`, for which the melting point amounted to 174 °C.

Compound `O=C(O)C1OC(O)C(O)C(O)C1O` (stereo not drawn) showed a melting point of 158 to 162 °C.

On to `COC(=O)c1ccc(Br)o1`, for which the melting point was 64 °C.

Compound `CCOP(=S)(Oc1ccc([N+](=O)[O-])cc1)c1ccccc1` (stereo not drawn) registered a melting point of 36 °C.

In turn, `Nc1cn[nH]c1` came in with a melting point of 81 °C.

Regarding `COc1ccc(Br)c(C(N)=O)c1`, the melting point came to 160 °C.

On to `O=C(O)CC(F)(F)C(=O)O`, for which the melting point was 142 °C.

In turn, `O=C1c2ccccc2C(=O)c2cc(Br)ccc21` returned a melting point of 206 °C.

With `SC1=NN=C(S)NN1`, the melting point lay in the range of 191 to 193 °C.

`COc1ccc(CC(N)=S)cc1OC` came in with a melting point of 136 to 138 °C.

As to `COC(=O)c1ccccc1NC(=S)NNC(=O)C(=O)c1c[nH]c2ccccc12`, the melting point was 283 °C.

Compound `CN1CCN(C(=O)CC(c2ccc(Cl)cc2)(c2ccc(Cl)cc2)c2ccc(Cl)cc2)CC1` yielded a melting point of 214 °C.

`CC12CCC3C(CCC4CC(CC(=O)O)=CCC43C)C1CCC2=O` (stereo not drawn) showed a melting point of 175 to 178 °C.

The compound `COc1cc(CC#N)ccc1O` returned a melting point of 56.5 °C.

The compound `O=C(O)c1cc(F)cc2c1OCOC2` displayed a melting point of 180 to 182 °C.

Take `COc1ccccc1N/N=C(/C#N)c1nc2ccccc2c(=O)[nH]1`: the melting point stood at 255 °C.

As to `COc1ccc([N+](=O)[O-])cc1`, the melting point is 54 °C.

Compound `O=S1(=O)CCOCC1` returned a melting point of 132 °C.

Take `O=C(O)[C@H](O)c1ccccc1Cl`: the melting point lay within 118 to 121 °C.

`O=Cc1cccc2c(Br)cccc12`: the melting point is 105 °C.

`CC(C)C1CCCCC1=O` (stereo not drawn) registered a melting point of 72.5 °C.

The compound `COc1cc(OC)nc(Sc2cccc3c2C(=O)OC3C)n1` (stereo not drawn) showed a melting point of 163 °C.

For `O=S(=O)(Cl)c1ccc(S(=O)(=O)c2ccccc2)s1`, the melting point came out at 104 °C.

As to `CCC12CCCN3CCC4(c5cccc(OC)c5N(C(C)=O)C4CC1)C32` (stereo not drawn), the melting point amounted to 208 °C.

In turn, `O=C(OCc1ccc(Cl)cc1)c1cnc(Cl)nc1C(F)(F)F` yielded a melting point of 69 to 71 °C.

The compound `Cc1cc(/C=C/c2ccccc2N)c([N+](=O)[O-])cc1[N+](=O)[O-]` displayed a melting point of 175 °C.

As to `Cc1c(C)n(C=O)c2ccccc12`, the melting point amounted to 89 °C.

With `CCCCCCCCCCCCCCCCCC(=O)OCC(O)CO` (stereo not drawn), the melting point was 74 °C.

As to `NC(=O)CCCCC1CCSS1` (stereo not drawn), the melting point came out at 128 °C.

`CCOC(=O)CCCCCC(=O)OCC` yielded a melting point of -24 °C.

As for `O/N=C1/CC(c2ccccc2)Cc2ccncc21` (stereo not drawn), the melting point is 227 °C.

Consider `c1ccn2cccc2c1`, for which the melting point came out at 75 °C.

On to `Cc1ccc(C#N)c(C#N)c1`, for which the melting point is 118 to 121 °C.

As for `COc1cc(OC)cc(C(=O)Cl)c1`, the melting point turned out to be 43 °C.

Compound `CC(=O)c1ccc(NC(=O)C(F)(F)C(F)(F)C(F)(F)C(F)(F)C(F)(F)C(F)(F)C(F)(F)C(F)(F)F)cc1` had a melting point of 155 °C.

As to `Clc1nccc(-c2ccco2)n1`, the melting point was 81.5 to 82.5 °C.

Consider `OC(c1ccccc1)c1c(F)c(F)c(F)c(F)c1F` (stereo not drawn), for which the melting point is 54 to 57 °C.

Take `C=CCc1c(O)c(C(=O)c2ccccc2)cc(C(=O)c2ccccc2)c1O`: the melting point was determined as 161 °C.

`CC(O)CN(CCO)CCO` (stereo not drawn) showed a melting point of 31.5 to 36 °C.

`CC1CC2C3CCC4=CC(=O)C=CC4(C)C3C(=O)CC2(C)C1(O)C(=O)CO` (stereo not drawn) gave a melting point of 202 °C.

With `N=C(N)NCC(O)CC(O)(C(=O)O)C1OC(n2cc(CO)c(N)nc2=O)C=CC1NC(=O)C(N)CO` (stereo not drawn), the melting point was more than 300 °C.

Compound `CC(C)(C)S(=O)(=O)c1cnc(N2CCCC2)nc1N` came in with a melting point of 199 to 201 °C.

Take `N#Cc1ccc(N2CCCC2)cn1`: the melting point lay in the range of 106 to 108 °C.

As to `CC(=O)C1CCC2(C)C(CC(=O)C3C4CCC(=O)C4(C)CCC32)C1` (stereo not drawn), the melting point turned out to be 237 °C.

`Cc1ccc2nc(O)cc(C)c2c1` had a melting point of 240 °C.

Compound `CC(C)=CCCC(C)=CC=CC(C)=CC=CC(C)=CC=CC=C(C)C=CC=C(C)C=CC1=C(C)CCCC1(C)C` showed a melting point of 178 °C.

In turn, `COc1ccc(-c2csnn2)cc1` yielded a melting point of 89 to 93 °C.

Turning to `CC(=O)N(Nc1ccccc1)c1ccc(-c2ccc(/N=N/c3ccccc3)cc2)cc1`, the melting point came to 244 °C.

Turning to `N=C(N)NCC1COc2ccccc2O1` (stereo not drawn), the melting point came out at 164 °C.

`COC(=O)c1scc(Br)c1O` gave a melting point of 80 °C.

Regarding `CCN(CC)CN1C(=O)C(=Cc2ccco2)SC1=S`, the melting point is 145 °C.

For the compound `CC(C)OC(=O)C1(S(=O)(=O)c2ccc([N+](=O)[O-])cc2)CC1`, the melting point came out at 123 °C.

`O=C(O)COc1cccc([N+](=O)[O-])c1` gave a melting point of 156 to 161 °C.

The compound `CC(=O)SC1CC2=CC(=O)CC(SC(C)=O)C2(C)C2CCC3(C)C(CCC3(C)O)C12` (stereo not drawn) yielded a melting point of 206 °C.

As for `CN(C1=NC(=Cc2ccccc2)C(=O)N1c1ccccc1)c1ccccc1`, the melting point is 207 °C.

`Cc1onc(-c2c(F)cccc2Cl)c1C(N)=O` yielded a melting point of 127 to 129 °C.

Take `N=c1sc(C(=O)c2cccs2)nn1-c1ccncc1`: the melting point amounted to 131 °C.

As to `O=C1CC2C(CC(O)C2CO)O1` (single isomer, unassigned; (-)), the melting point was in the range of 114 to 118 °C.

As to `Sc1ccncc1`, the melting point is 182 to 189 °C.

With `COc1ccc(C(=O)NNC(=O)c2cccc3ccccc23)cc1`, the melting point is 189 °C.

Consider `N=C(NCCCC(N)C(=O)O)N[N+](=O)[O-]` (stereo not drawn), for which the melting point worked out at 257 °C.

Regarding `N#Cc1cc([N+](=O)[O-])ccc1F`, the melting point was 73 to 74 °C.

For `CC(=O)c1sc(-c2cccs2)nc1C`, the melting point fell in the range of 121 to 122 °C.

For the compound `CCCCCCSc1nnc(S)s1`, the melting point was determined as 75 °C.

Turning to `COc1ccc2ccccc2c1C#N`, the melting point lay in the range of 94 to 98 °C.

In turn, `O=C(O)CNC(=O)c1ccccc1O` returned a melting point of 168 °C.

`CCOC(=O)C(C)(C#N)c1ccccc1[N+](=O)[O-]` (stereo not drawn) yielded a melting point of 68 °C.

For `CC(=O)Nc1cc(NC(C)=O)c(C=Cc2ccccc2)cc1C=Cc1ccccc1`, the melting point came to 224 °C.

`O=[N+]([O-])c1ccc(F)c(Cl)c1` had a melting point of 44 °C.

`CC(=O)c1cc(Cl)ccc1Cl` gave a melting point of 12 °C.

Consider `O=S(=O)(O)CCS(=O)(=O)O`, for which the melting point was determined as 173 °C.

As to `Cc1ccc(C)c2c1C(=O)N(C)C2O` (stereo not drawn), the melting point is 163 °C.

On to `Clc1ccc(C=NCCN=Cc2ccc(Cl)cc2)cc1`, for which the melting point came to 125 °C.

Take `Nc1c(C=O)cc(C=O)c2nc(-c3ccccc3)c(-c3ccccc3)nc12`: the melting point was determined as 289 °C.

`O=C(Nc1ccc([N+](=O)[O-])cc1[N+](=O)[O-])C(C(F)(F)F)(C(F)(F)F)C(F)(F)F` gave a melting point of 164 °C.

`COc1cc2c(c(O)c1OC)C(C)N(C)CC2` (stereo not drawn) showed a melting point of 112 °C.

As for `CN1COCc2c1ccc1cc3ccc(N)c(CO)c3nc21`, the melting point stood at 235 °C.

Compound `N#Cc1ccc(-n2ccnc2)cc1` yielded a melting point of 151 to 153 °C.

In turn, `O=Cc1cccc2cc[nH]c12` came in with a melting point of 88 °C.

For `COc1cc(I)cc(C=O)c1O`, the melting point was found to be 129 °C.

As to `O=c1[nH]c2ccccc2n1CCCCl`, the melting point lay in the range of 115 to 125 °C.

`O=[N+]([O-])c1ccc(S(=O)(=O)Cl)cc1`: the melting point is 78 °C.

`CCOC(=O)N=C(c1ccc[nH]1)N1CCOCC1` showed a melting point of 147 to 149 °C.

In turn, `COc1cccc(C=Cc2cc(C=Cc3cccc(OC)c3O)c([N+](=O)[O-])cc2[N+](=O)[O-])c1O` came in with a melting point of 254 °C.

`COc1cc2c(cc1OC)C(c1ccc(C)o1)SC(c1ccc(C)o1)=N2` (stereo not drawn) showed a melting point of 148 °C.

Turning to `OC1CC2CCC1C2` (stereo not drawn), the melting point came out at 149 °C.

In turn, `Fc1ccc(Br)cc1Br` gave a melting point of 69 °C.

As to `C/C(=N\O)C1CC2(C)CCC1C2(C)C` (stereo not drawn), the melting point amounted to 95.5 °C.

The compound `C=C[N+](=O)[O-]` gave a melting point of -55.5 °C.

`c1cncc(Cn2cccc2)c1` returned a melting point of 59 to 64 °C.

As for `BrCc1cccc2nsnc12`, the melting point lay in the range of 89 to 92 °C.

For the compound `CC1(C)C2CCC1(C)C(NC(=S)Nc1ccccc1)C2NC(=S)Nc1ccccc1` (stereo not drawn), the melting point was 178 °C.

Compound `COc1ccc(F)c(CBr)c1F` gave a melting point of 55 °C.

Compound `Cc1ccc2c(CCl)c(C)ccc2c1CCl` had a melting point of 228 °C.

Consider `COc1c(C)c2c(c(O)c1CC=C(C)CCC(=O)OCCN1CCOCC1)C(=O)OC2`, for which the melting point was 93.5 °C.

`NNC(=O)CNc1nc(N)n[nH]1` returned a melting point of 225 °C.

Compound `Oc1cccc(S)c1` yielded a melting point of 16.5 °C.

As for `Nc1cccc2cc3ccccc3cc12`, the melting point worked out at 116 °C.

Take `Cc1ccnc(Cl)c1N`: the melting point turned out to be 66 °C.

As for `BrCCC(c1ccccc1)c1ccccc1`, the melting point turned out to be 41 °C.

As to `O=C(N[C@@H](CSC(c1ccccc1)(c1ccccc1)c1ccccc1)C(=O)O)OCC1c2ccccc2-c2ccccc21`, the melting point was in the range of 172 to 177 °C.

For `COc1cc(OC)n2nc(S(=O)(=O)Nc3c(Cl)ccc(C)c3Cl)nc2n1`, the melting point is 211 °C.

For the origin of these results see a melting point compilation (Tetko et al.).
